Measured values as given in patent US20090012177A1, “Treatment of psychiatric disorders using entacapone, tolcapone and other COMT inhibitor or MB-COMT inhibitor drugs” (priority 2006, published 2009).

Tests used:
[1] = tested on: rats; conditions: cited from earlier work
[2] = tested on: primates; conditions: cited from earlier work
[3] = cited from earlier work
[4] = tested on: prefrontal cortex functions; conditions: subjects with the Val/Val genotype; cited from earlier work
[5] = tested on: patients with SCZ, BD, Major depression and drug dependency; assay: Clinical studies of entacapone in more than 100 patients, evaluated with the CGI scale; type: in vivo, human
Description: This new therapeutic application was determined in patients (Men/women) in single-drug and combination drug therapy. 100 patients were treated at a dose range of 3-10-mg/kg day (50 mg/day-800 mg/day) orally for period of 12 weeks and continued for as long as patients consented averaged 12 months or more.
The drug efficacy was evaluated using the CGI (Clinical Global Impression) scale. This is a simple tool that is clinically understandable, has proven to be a robust measure of efficacy in drug treatment trial and is highly sensitive to change of clinical status.

[6] = tested on: patient with BD; assay: Illustrative case report: a case of BD; type: in vivo, human; conditions: 400 mg/day, follow up
Description: Married person, a hedge fund investment manager with history of BD who has had temporary partial response to antidepressants but mainly resulting in exacerbation symptoms of anxiety, relapse to a depression or cycling to mania. They were intolerant of atypical antipsychotics with potential antidepressant effect (Ziprasidone, Aripiprazole and Quetiapine) either as mono therapy or combined with Lithium or Lamotrigine. […] They reported oil Lithium their “up and down swings were better” but complained their depression was not resolved and they were not happy. They also complained of lack of motivation, trouble with concentration, getting easily overwhelmed with their job, inability to feel joy, overall lack of interest in everything, not knowing what to do with themself, gave up on all hobbies, feeling being all consumed, excessive day time napping, feeling bored especially when their time would be unstructured on week end, loss of their spontaneity and resorting to procrastination, They went to an exotic vacation in Caribbean with their spouse with the hope to bounce back. But as they reported they were not able to enjoy their vacation, complained feeling “being stuck at the low bottom and strongly believed they would never come out of it”. They had started to do Marijuana with the hope to improve their mood. They were preoccupied with getting a gun and shoots themself. […]

[7] = tested on: patients with drug dependency; assay: Illustrative case reports: six cases of drug dependency; type: in vivo, human
[8] = in vivo; cited from earlier work
[9] = administered in conjunction; cited from earlier work

## Cc1ccc(C(=O)c2cc(O)c(O)c([N+](=O)[O-])c2)cc1 [Tolcapone]
[1]
  extradimensional set shifting performance mediated by prefrontal cortex catecholamines: significantly improved
[2]
  extradimensional set shifting performance mediated by prefrontal cortex catecholamines: significantly improved
[3]; human, in vivo
  tolerability: well tolerated drug with no major side effects
[3]; reported in Europe in the early years of use
  hepatic failure: three cases of hepatic failure

## CC(N)Cc1ccccc1 (stereo not shown) [amphetamine]
[4]
  efficiency of prefrontal cortex functions in working memory tasks: enhanced

## CCN(CC)C(=O)/C(C#N)=C/c1cc(O)c(O)c([N+](=O)[O-])c1 [entacapone]
[5]; during the study, 50-800 mg per day
  serious events (physical, neurological or psychiatric adverse effects): no indication of serious events
[5]; entacapone (Comtan) 50-800 mg per day, more than 100 patients
  cases with improved negative and depressive symptoms (CGI scale): more than 60%
[5]; in comparison to the pre-treatment status
  effect of discontinuation of treatment on clinical condition: did not cause any worsening of the clinical condition
[6]
  duration of maintained effect in BD: 12 months
[7]; cocaine and alcohol dependant, relapsed when entacapone stopped
  duration of abstinence, Case #2: 10 months
[7]; increased to 400 then 600 mg/day
  duration of sobriety, Case #3: 14 months
[8]
  blood brain barrier penetration relative to tolcapone: half that of about tolcapone
[3]; human, in vivo
  common side effects: gastrointestinal problems, including diarrhea, nausea and abdominal pains
  safety profile relative to tolcapone: much better safety profile
[3]; related to increased effects of L-DOPA, beginning of treatment
  most frequent undesirable effects: involuntary movements (dyskinesias)
[9]
  bioavailability of dopaminergic agents such as L-DOPA: increases the bioavailability
